Laboratory results as given in patent US9980943B2, “Methods of treating muscular dystrophy” (BOARD OF REGENTS OF THE NEVADA SYSTEM OF HIGHER EDUCATION, …, priority 2013, dated 2018).

How the values were obtained:
Assay type in all cases: cell-based, mouse
[1] = test system: β-galactosidase in CMV-LacZ C2C12 myotubes; test: CMV-LacZ secondary screen in C2C12 myotubes (β-Gal stabilizing assay); settings: C2C12 CMV-LacZ myotubes, fold relative to DMSO
Outline: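 First, C2C12 myoblasts were transfected with a linearized CMV-LACZ vector and clonal lines selected by FDG β-gal assay. Then cells were exposed to compounds at 0.5, 1, 5, 10, 20 and 40 μM in 96-well format, two replicates each, and β-gal measured.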

[2] = test system: α7 integrin (LacZ reporter in α7+/LacZ myotubes); test: Myotube α7 integrin FDG assay (Burkin assay in myotubes, 96-well); settings: myotubes
[3] = test system: β-galactosidase in CMV-LacZ C2C12 myoblasts; test: CMV-LacZ secondary screen in C2C12 myoblasts (β-Gal stabilizing assay); settings: CMV-LacZ C2C12 myoblasts
Outline: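 C2C12 myoblasts stably carrying a linearized CMV-driven LacZ construct, clone chosen by β-gal level in the myoblast FDG assay. Compounds tested in 96-well dose-response at 0.5, 1, 5, 10, 20 and 40 μM, N=2 replicates per point, to detect β-gal stabilization.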

[4] = test system: α7 integrin (LacZ reporter in α7βgal+/− myoblasts); test: Myoblast α7+/LacZ integrin FDG assay (Burkin assay in myoblasts, 96-well); settings: α7+/LacZ myoblasts, 96-well

Compound | CMV-LACZ in Myotubes, signal relative to DMSO ([1]; 0.5 uM) | CMV-LACZ in Myotubes, signal relative to DMSO ([1]; 1 uM) | CMV-LACZ in Myotubes, signal relative to DMSO ([1]; 5 uM) | CMV-LACZ in Myotubes, signal relative to DMSO ([1]; 10 uM) | CMV-LACZ in Myotubes, signal relative to DMSO ([1]; 20 uM) | CMV-LACZ in Myotubes, signal relative to DMSO ([1]; 40 uM) | Burkin Assay in Myotubes, α7 integrin LacZ reporter signal relative to DMSO ([2]; 0.5 uM) | Burkin Assay in Myotubes, α7 integrin LacZ reporter signal relative to DMSO ([2]; 1 uM) | Burkin Assay in Myotubes, α7 integrin LacZ reporter signal relative to DMSO ([2]; 5 uM) | Burkin Assay in Myotubes, α7 integrin LacZ reporter signal relative to DMSO ([2]; 10 uM) | Burkin Assay in Myotubes, α7 integrin LacZ reporter signal relative to DMSO ([2]; 20 uM) | Burkin Assay in Myotubes, α7 integrin LacZ reporter signal relative to DMSO ([2]; 40 uM) | CMV-LACZ in Myoblasts (β-galactosidase activity relative to DMSO) ([3]; 0.5 uM) | CMV-LACZ in Myoblasts (β-galactosidase activity relative to DMSO) ([3]; 1 uM) | CMV-LACZ in Myoblasts (β-galactosidase activity relative to DMSO) ([3]; 5 uM) | CMV-LACZ in Myoblasts (β-galactosidase activity relative to DMSO) ([3]; 10 uM) | CMV-LACZ in Myoblasts (β-galactosidase activity relative to DMSO) ([3]; 20 uM) | CMV-LACZ in Myoblasts (β-galactosidase activity relative to DMSO) ([3]; 40 uM) | Burkin Assay in Myoblasts, signal relative to DMSO ([4]; 0.5 uM) | Burkin Assay in Myoblasts, signal relative to DMSO ([4]; 1 uM) | further results
O=c1c2cc(-c3ccccc3)sc2nc2n1N=C(c1ccccc1)CS2 [MLS000858981-01] | 1.0257 | 0.8419 | 1.0786 | 0.9781 | 1.0421 | 1.0000 | 1.027 | 0.8837 | 1.055 | 0.8922 | 0.8526 | 0.8173 | 0.9229 | 0.9696 | 1.1687 | 0.9009 | 0.9985 | 0.9696 | 0.953 | 0.999 | Burkin Assay in Myoblasts, signal relative to DMSO ([4]; 5 uM): 1.186; Burkin Assay in Myoblasts, signal relative to DMSO ([4]; 10 uM): 1.01; Burkin Assay in Myoblasts, signal relative to DMSO ([4]; 20 uM): 1.0113; Burkin Assay in Myoblasts, signal relative to DMSO ([4]; 40 uM): 1.005
O=C(NCc1ccccc1)c1csc(-c2cccnc2)n1 [MLS000860966-01] | 0.8229 | 1.0743 | 0.9632 | 0.8601 | 0.9190 | 0.7920 | 0.9275 | 0.8211 | 1.1137 | 1.107 | 1.06 | 0.8927 | 0.9370 | 1.0900 | 0.7918 | 0.8424 | 0.6232 | 0.7600 | 0.8092 | 0.9506 | Burkin Assay in Myoblasts, signal relative to DMSO ([4]; 5 uM): 1.225; Burkin Assay in Myoblasts, signal relative to DMSO ([4]; 10 uM): 1.126; Burkin Assay in Myoblasts, signal relative to DMSO ([4]; 20 uM): 1.242; Burkin Assay in Myoblasts, signal relative to DMSO ([4]; 40 uM): 1.117
C/C(=N\NC(=O)c1cc(C)oc1C)c1ccc2ccccc2c1 [MLS000912258-01] | 0.9743 | 0.9162 | 1.1251 | 1.2253 | 1.0760 | 1.0350 | 0.9264 | 0.8571 | 1.144 | 0.9631 | 0.877 | 0.7193 | 1.1073 | 1.1693 | 0.9071 | 1.0171 | 1.1074 | 0.8621 | 0.8436 | 0.9089 | Burkin Assay in Myoblasts, signal relative to DMSO ([4]; 5 uM): 1.2722; Burkin Assay in Myoblasts, signal relative to DMSO ([4]; 10 uM): 0.8425; Burkin Assay in Myoblasts, signal relative to DMSO ([4]; 20 uM): 0.6351; Burkin Assay in Myoblasts, signal relative to DMSO ([4]; 40 uM): 0.3725
